Measurements from publication PMC7024175, “In Depth Analysis of Kinase Cross Screening Data to Identify CAMKK2 Inhibitory Scaffolds” (Molecules, 2020).
Read-outs that look alike come from different tables or passages of the source.

Biological target: T1, CAMKK2 (Homo sapiens, UniProt Q96RR4)
T1 construct: made in house
Experiment: CAMKK2 enzyme assay (radiometric, CaMKKtide)
Assay type: biochemical
Settings: for remaining activity at 0.01 µM / remaining activity at 0.1 µM / remaining activity at 1 µM: read-out: PoC (activity remaining)

[1] = 8-point full dose response, read-out: IC50

T1 sequence (Q96RR4 whole entry): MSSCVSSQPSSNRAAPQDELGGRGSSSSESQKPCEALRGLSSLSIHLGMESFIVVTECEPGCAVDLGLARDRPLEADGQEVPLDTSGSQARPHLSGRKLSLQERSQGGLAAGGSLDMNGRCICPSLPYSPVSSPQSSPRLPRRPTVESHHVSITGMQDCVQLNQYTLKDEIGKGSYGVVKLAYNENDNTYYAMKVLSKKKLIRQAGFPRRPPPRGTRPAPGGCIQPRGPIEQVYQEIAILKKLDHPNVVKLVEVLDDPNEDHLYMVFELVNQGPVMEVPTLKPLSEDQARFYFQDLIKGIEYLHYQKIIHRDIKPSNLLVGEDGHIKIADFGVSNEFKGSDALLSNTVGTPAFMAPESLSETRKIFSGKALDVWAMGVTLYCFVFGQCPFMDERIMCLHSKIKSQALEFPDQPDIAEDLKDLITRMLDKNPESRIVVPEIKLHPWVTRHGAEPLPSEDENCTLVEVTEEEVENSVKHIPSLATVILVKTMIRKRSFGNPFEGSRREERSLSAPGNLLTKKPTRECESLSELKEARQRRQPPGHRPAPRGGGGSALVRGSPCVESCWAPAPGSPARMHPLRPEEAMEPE

| Structure (SMILES) | PoC (activity remaining) (0.01 µM inhibitor) [%] | PoC (activity remaining) (1.0 µM inhibitor) [%] | remaining activity at 0.01 µM (0.01 µM inhibitor) [%] | remaining activity at 0.1 µM (0.1 µM inhibitor) [%] | remaining activity at 1 µM (1.0 µM inhibitor) [%] | other results |
| --- | --- | --- | --- | --- | --- | --- |
| c1ccc2c(-c3cnn4cc(-c5ccc(N6CCNCC6)cc5)cnc34)ccnc2c1 [LDN 193189] | 68 | 50 | – | – | – | PoC (activity remaining) (0.1 µM inhibitor): 62%; IC50 [1]: 0.146 µM |
| COc1cc(N2CCOCC2)ccc1Nc1ncc(F)c(Nc2ccccc2NS(C)(=O)=O)n1 [CZC 25146] | 96 | 93 | – | – | – | PoC (activity remaining) (0.1 µM inhibitor): 101% |
| c1cc(-c2cnn3cc(-c4ccc(OCCN5CCCCC5)cc4)cnc23)ccn1 [Dorsomorphin] | – | – | 100 | 96 | 58 | – |
| CC(=O)c1cnc2ccc(-c3cc(Cl)c(O)c(Cl)c3)nc2c1N[C@H]1CC[C@H](CN(C)C)CC1 [OTSSP167] | – | – | 84 | 49 | 0 | IC50 [1]: 0.086 µM |
| C1=C/COCc2cc(ccc2OCCN2CCCC2)Nc2nccc(n2)-c2cccc(c2)COC/1 [Pacritinib] | – | – | 96 | 78 | 31 | – |
| Cc1ncc(CCCN(C)C)cc1Nc1ncc2c(n1)-c1ccc(C(F)(F)F)cc1NC(=S)C2 [MLN 0905] | 99 | 86 | – | – | – | PoC (activity remaining) (0.1 µM inhibitor): 95% |
| CN1CC[C@H](c2c(O)cc(O)c3c(=O)cc(-c4ccccc4Cl)oc23)[C@H](O)C1 [Alvocidib] | – | – | 102 | 62 | 29 | – |
| CO[C@@H]1[C@H](N(C)C(=O)c2ccccc2)C[C@H]2O[C@]1(C)n1c3ccccc3c3c4c(c5c6ccccc6n2c5c31)C(=O)NC4 [Midostaurin] | – | – | – | – | – | remaining activity at 0.01 µM: 97%; remaining activity at 0.1 µM: 82%; remaining activity at 1 µM: 38% |
| COCCOc1ccc2c(c1)ncn2-c1ccc2cccc(N3CCC(N)CC3)c2n1 [CP 673451] | – | – | 88 | 46 | 17 | IC50 [1]: 0.073 µM |
| CNC(=O)c1nn(C)c2c1C(C)(C)Cc1cnc(Nc3ccc(N4CCN(C)CC4)cc3)nc1-2 [Milciclib] | – | – | 107 | 105 | 76 | – |
| COc1cc(N2CCC(N)CC2)ccc1Nc1ncc(Cl)c(-c2c[nH]c3ccccc23)n1 [AZD 3463] | 103 | 26 | – | – | – | PoC (activity remaining) (0.1 µM inhibitor): 74%; IC50 [1]: 0.185 µM |
| CC(C)[C@H](CO)Nc1nc(Nc2cc(N)cc(Cl)c2)c2ncn(C(C)C)c2n1 [Aminopurvalanol] | – | – | 100 | 80 | 22 | – |
| CCc1nc(C(N)=O)c(Nc2ccc(N3CCC(N4CCN(C)CC4)CC3)c(OC)c2)nc1NC1CCOCC1 [Gilteritinib] | – | – | 84 | 74 | 18 | IC50 [1]: 0.204 µM |
| CNC(=O)c1cc(Oc2ccc(NC(=O)Nc3cc(C(C)(C)C)nn3-c3ccc4ncccc4c3)c(F)c2)ccn1 [Rebasitinib] | 95 | 81 | – | – | – | PoC (activity remaining) (0.1 µM inhibitor): 93% |
| CCN1CCN(c2ccc(Nc3cc(N(C)C(=O)Nc4c(Cl)c(OC)cc(OC)c4Cl)ncn3)cc2)CC1 [BGJ 398] | – | – | 100 | 99 | 96 | – |
| COc1cc(N2CCC(N(C)C)CC2)ccc1Nc1ncc(Cl)c(Nc2ccccc2P(C)(C)=O)n1 [ALK-IN-1] | – | – | 62 | 34 | 3 | IC50 [1]: 0.028 µM |
| Cn1cc(C2=C(c3cn(CCCSC(=N)N)c4ccccc34)C(=O)NC2=O)c2ccccc21 [Ro 31-8220] | 100 | 85 | – | – | – | PoC (activity remaining) (0.1 µM inhibitor): 100% |
| O=C1NC(=NCc2cccs2)S/C1=C\c1ccc2ncccc2c1 [Ro 3306] | 94 | 88 | – | – | – | PoC (activity remaining) (0.1 µM inhibitor): 94% |
| Nc1nc(Nc2ccc(S(N)(=O)=O)cc2)nn1C(=S)Nc1c(F)cccc1F [CDK 1/2 Inhibitor III] | – | – | – | – | – | IC50: 0.019 µM; remaining activity at 0.01 µM: 69%; remaining activity at 0.1 µM: 17%; remaining activity at 1 µM: 3% |
| CC1(COc2ccc3c(c2)ncn3-c2ccc3cccc(N4CCC(N)CC4)c3n2)COC1 [Crenolanib] | – | – | 118 | 92 | 47 | – |
| Cn1c2ccccc2c2c3c(c4c5ccccc5n(CCC#N)c4c21)CNC3=O [Go6976] | – | – | 97 | 92 | 80 | – |
| O=C1NC(=O)c2c1c1c3ccccc3n3c1c1c2c2ccccc2n1C1CCC3O1 [SB 218078] | 98 | 64 | – | – | – | PoC (activity remaining) (0.1 µM inhibitor): 86% |
| COc1cc(N2CCC(N3CCN(C)CC3)CC2)ccc1Nc1ncc(Cl)c(Nc2ccccc2P(C)(C)=O)n1 [AP26113] | – | – | – | – | – | remaining activity at 0.01 µM: 60%; remaining activity at 0.1 µM: 20%; remaining activity at 1 µM: 2% |
| CCS(=O)(=O)Nc1ccc2c(c1)/C(=C(/Nc1ccc(CN3CCCCC3)cc1)c1ccccc1)C(=O)N2 [Hesperadin] | – | – | 99 | 95 | 84 | – |
| C[C@]12O[C@H](C[C@]1(O)CO)n1c3ccccc3c3c4c(c5c6ccccc6n2c5c31)CNC4=O [Lestaurtinib] | – | – | – | – | – | remaining activity at 0.01 µM: 64%; remaining activity at 0.1 µM: 33%; remaining activity at 1 µM: 3% |
| COC(=O)[C@@]1(O)C[C@H]2O[C@]1(C)n1c3ccccc3c3c4c(c5c6ccccc6n2c5c31)C(=O)NC4 [K252a] | 99 | 31 | – | – | – | – |
| O=C1Nc2cc(Br)ccc2/C1=C1/Nc2ccccc2/C1=N\O [BIO] | 102 | 89 | – | – | – | PoC (activity remaining) (0.1 µM inhibitor): 100% |
| O=C(Nc1nc2cccc(-c3ccc(CN4CCS(=O)(=O)CC4)cc3)n2n1)C1CC1 [Filgotinib] | – | – | 96 | 86 | 72 | – |
| Cc1cc2c(F)c(Oc3ncnn4cc(OC[C@@H](C)O)c(C)c34)ccc2[nH]1 [Brivanib] | – | – | 101 | 100 | 100 | – |
| CCOc1cc2ncc(C#N)c(Nc3ccc(F)c(Cl)c3)c2cc1NC(=O)/C=C/CN(C)C [Pelitinib] | – | – | 100 | 84 | 60 | – |

Now from value to compound, other results behind:

| PoC (activity remaining) (0.01 µM inhibitor) [%] | PoC (activity remaining) (1.0 µM inhibitor) [%] | remaining activity at 0.01 µM (0.01 µM inhibitor) [%] | remaining activity at 0.1 µM (0.1 µM inhibitor) [%] | remaining activity at 1 µM (1.0 µM inhibitor) [%] | Structure (SMILES) | other results |
| --- | --- | --- | --- | --- | --- | --- |
| – | – | 101 | 99 | 99 | C=CCn1c(=O)c2cnc(Nc3ccc(N4CCN(C)CC4)cc3)nc2n1-c1cccc(C(C)(C)O)n1 [MK1775] | – |
| – | – | 98 | 101 | 96 | Cc1c[nH]c(-c2cnc(NCCNc3ccc(C#N)cn3)nc2-c2ccc(Cl)cc2Cl)n1 [CHIR99021] | – |
| – | – | 97 | 80 | 33 | O=C(NCCCNc1nc(Nc2cccc(NC(=O)N3CCCC3)c2)ncc1I)c1cccs1 [BX795] | – |
| – | – | 96 | 84 | 42 | O=C(c1ccc(/C=C/c2n[nH]c3ccccc23)cc1)N1CCNCC1 [KW2449] | – |
| – | – | 92 | 81 | 34 | O=C1NC(=O)/C(=C/c2ccc3nccc(-c4ccncc4)c3c2)S1 [GSK1059615] | – |
| 92 | 82 | – | – | – | N#Cc1c(Oc2ccc(F)c(NC(=O)Cc3cccc(C(F)(F)F)c3)c2)ccc2nc(NC(=O)C3CC3)sc12 [TAK632] | PoC (activity remaining) (0.1 µM inhibitor): 87% |
| 104 | 90 | – | – | – | CNC(=O)c1ccccc1Nc1nc(Nc2ccc(N3CCOCC3)cc2OC)ncc1Cl [TAE226] | PoC (activity remaining) (0.1 µM inhibitor): 97% |
| – | – | 95 | 96 | 92 | C[C@@H](Oc1cc(-n2cnc3ccc(CN4CCN(C)CC4)cc32)sc1C(N)=O)c1ccccc1C(F)(F)F [GSK461364] | – |
| 100 | 26 | – | – | – | O=C(Nc1cccc(Nc2ncc(Br)c(NCCc3cnc[nH]3)n2)c1)N1CCCC1 [BX912] | PoC (activity remaining) (0.1 µM inhibitor): 90% |
| – | – | 104 | 94 | 75 | CC[C@@H]1C(=O)N(C)c2cnc(Nc3ccc(C(=O)N[C@H]4CC[C@H](N5CCN(CC6CC6)CC5)CC4)cc3OC)nc2N1C(C)C [BI6727] | – |
| – | – | 95 | 78 | 71 | Cc1nc(Nc2[nH]nc3c2CN(C(=O)N[C@H](CN(C)C)c2ccccc2)C3(C)C)c2sccc2n1 [PF3758309] | – |
| – | – | 97 | 87 | 42 | COc1cc(N2CCC(N3CCN(C)CC3)CC2)ccc1Nc1ncc(Cl)c(Nc2ccccc2S(=O)(=O)C(C)C)n1 [TAE684] | – |
| – | – | 109 | 93 | 67 | Cc1[nH]c(/C=C2\C(=O)Nc3ccc(S(=O)(=O)Cc4c(Cl)cccc4Cl)cc32)c(C)c1C(=O)N1CCC[C@@H]1CN1CCCC1 [PHA665752] | – |
| 92 | 20 | – | – | – | CC(=O)NCC(=O)N1[C@@H]2CC[C@H]1c1ccc(Nc3ncc(C(F)(F)F)c(NC4CCC4)n3)cc12 [PF03814735] | PoC (activity remaining) (0.1 µM inhibitor): 70%; IC50 [1]: 0.227 µM |
| – | – | 95 | 86 | 71 | CN(C)S(=O)(=O)c1ccc2c(c1)/C(=C/c1cc3c([nH]1)CCCC3)C(=O)N2 [SU6656] | – |
| 92 | 35 | – | – | – | O=C(NCCCNc1nc(Nc2cccc(CN3CCOCC3)c2)ncc1C1CC1)C1CCC1 [MRT67307] | PoC (activity remaining) (0.1 µM inhibitor): 86% |
| – | – | 94 | 65 | 26 | CC(C)c1cc(CNc2nc(Nc3cc(C4CC4)[nH]n3)cc(N3CCN(C)CC3)n2)on1 [XL228] | – |
